In ChEMBL document CHEMBL2412951, “Resonance light scattering technique as a new tool to determine the binding mode of anticancer drug oridonin to DNA” (Eur J Med Chem, 2013):
Active and inactive are the calls of the source. No cut-off for these calls is given here.

Columns and labels:
Assay type in all cases: nucleic-acid assay
Details in all cases: Bos taurus
Calf thymus DNA [1] = experiment: Binding affinity to calf thymus double helix DNA at 90 uM by resonance light scattering analysis in presence of 0.005 to 0.2 M NaCl
DNA [2] = experiment: Binding affinity to calf thymus DNA at 1 X 10^-5 M by spectrofluorimetric analysis
Calf thymus DNA [3] = experiment: Binding affinity to calf thymus dsDNA at 1 X 10^-5 to 2 x 10^-5 M after 10 mins by UV/vis spectrophotometric analysis
DNA [4] = experiment: Binding affinity to calf thymus DNA at 90 uM at pH 2 to 8.5 by resonance light scattering analysis
DNA [5] = experiment: Binding affinity to calf thymus DNA at 5 X 10^-5 M by fluorescence polarization assay
DNA [6] = experiment: Binding affinity to calf thymus DNA at 1 ug/ml at pH 2.5 by SEM analysis
DNA [7] = experiment: Binding affinity to calf thymus DNA at 10^-5 M by atomic force microscopic analysis
DNA [8] = experiment: Binding affinity to calf thymus DNA at 10 to 160 uM by resonance light scattering analysis
DNA [9] = experiment: Binding affinity to calf thymus DNA by Stern-Volmer plot analysis

Activity (Calf thymus DNA [1]): Active
Activity (DNA [2]): Active
Activity (Calf thymus DNA [3]): Active
Activity (DNA [4]): Active
Activity (DNA [5]): Active
Activity (DNA [6]): Active
Activity (DNA [7]): Active
Activity (DNA [8]): Active
KSV (DNA [9]): 1.79 ×10⁵ /M
Compound: C=C1C(=O)[C@]23[C@H](O)[C@H]1CC[C@H]2[C@@]12CO[C@]3(O)[C@@H](O)[C@@H]1C(C)(C)CC[C@@H]2O
